Measured values taken from patent US20100184812A1, “MUTUAL PRODRUGS AND METHODS TO TREAT CANCER” (UNIVERSITY OF MARYLAND, BALTIMORE, priority 2007, published 2010).
“Also recorded” adds a separate entry of the source. Like-named read-outs stand apart in the source and are kept apart here.

How the values were obtained:
[1] = tested on: PC-3 prostate cancer cells; assay: MTT cell growth inhibition assay, PC-3 cells; type: cell-based, human
Protocol: PC-3 (androgen receptor negative, AR−ve) cells were obtained from American Type Culture Collection (ATCC, Rockville, Md., USA). Cells were maintained in RPMI 1640 medium (Gibco, Invitrogen, Carlsbad, Calif., USA) supplemented with 10% fetal bovine serum (Atlanta Biologicals, Lawrenceville, Ga., USA) and 1% penicillin/streptomycin. Cells were grown as a monolayer in T75 tissue culture flasks in a humidified incubator (5% CO2, 95% air) at 37° C.
(§1) PC-3 cells were seeded in 24 well plates (Corning Costar) at a density of 2×10^4 cells per well per 1 mL of medium. Cells were allowed to adhere to the plate for 24 hours and then treated with different concentrations of ATRA, HDIs or mutual prodrugs dissolved in 10% DMSO, 90% ethanol. Cells were treated for five days with renewal of prodrug and media on day 3. On the fifth day, medium was renewed and 100 μL of MTT (3-(4,5-dimethylthiazol-2-yl)-2,5-diphenyl-2H-tetrazolium bromide from Sigma) solution (0.5 mg MTT/mL of media) was added to the medium such that the ratio of MTT:medium was 1:10. The cells were incubated with MTT for 2 hours. The medium was then aspirated and 500 μL of DMSO was added to solubilize the violet MTT-formazan product. The absorbance at 560 nm was measured by spectrophotometry (Victor 1420 multilabel counted, Wallac). For each concentration of agent or mutual prodrugs there were triplicate wells in each independent experiment. GI50 values were calculated by nonlinear regression analysis using GraphPad Prism software.
(§2) The MTT (3-[4,5-dimethylthiazol-2-yl]-2,5-diphenyltetrazolium bromide) assay was used to measure the cell viability. PC-3 cells or MDA-MB-231 cells (1.0×10^3 cells/ml) were seeded into 96 well plates. Cells were treated with the compounds on day 2 at different concentrations. On the 5th day, the medium was removed and […] of a 0.5 mg/ml MTT solution was added to each well. The plates were incubated at 37° C. for 2 hours and 200 μL of DMSO was added. The yellow tetrazolium salt (MTT) is reduced to a purple formazan product by the mitochondrial dehydrogenase from living cells. The product is then detected by spectrophotometry at 560 nm.
To assess the effect of mutual prodrugs on cell growth, PC-3 and MDA-MB-231 cells were treated with mutual prodrugs for […], respectively. […] In this cell line, the order of potency was VNLG/66>VNLG/114>VNLG/122>VNLG/124>VNLG/60. The efficacies of mutual prodrugs were compared to the efficacies of ATRA or HDIs alone in PC-3 prostate cancer cells. […] The reason(s) for these differential potencies of the different mutual prodrugs in PC-3 cells are unknown at this time, but may be idiosyncratic, possibly due to extents and efficiencies of cell membrane penetration and/or intracellular cleavage of mutual prodrugs.

[2] = tested on: MDA-MB-231 breast cancer cells; assay: MTT colorimetric cell viability assay, MDA-MB-231 cells; type: cell-based
Protocol: (§3) Other cell lines used in this study include, MDA-MB-231 (estrogen receptor negative, ER−ve), MCF-7 (ER+ve) were also purchased from ATCC and were cultured as previously described.^44, 45 LTLC and LTLT-Ca were kindly provided by Dr. Angela Brodie, University of Maryland, Baltimore, and details of their phenotypes and culturing conditions are as previously reported.^46, 47 MCF-7TAM and MCF-7HoxB-7 were provided by Dr. Sara Sukumar of Johns Hopkins University, Baltimore, and details of their phenotypes and culturing conditions are as previously reported.^48 Except for MCF-7 breast cancer cell all other breast cancer cells used in this study are insensitive to endocrine therapeutic agents and to most anti-cancer agents.
as §2, with “viability.” for “viability. PC-3 cells or”, “compound” for “compounds”
as §2

MCF-7HOX-B7 = assay: MTT cell growth inhibition, MCF-7HOX-B7 cells; type: cell-based
Protocol: as §3, §1
(§4) Given the potency of most of the mutual prodrugs of the present invention, in MDA-MB-231 and PC-3 cell lines, their effects on the growth of some known drug-resistant breast cancer cell lines, including MCF-7TAMR, MCF-7Hox-B7, LTLC and LTLT-Ca was tested compared to parental MCF-7 cells.

MCF-7TAMR = assay: MTT cell growth inhibition, MCF-7TAMR cells; type: cell-based
Protocol: as §3, §1, §4

MCF-7 = assay: MTT cell growth inhibition, MCF-7 cells; type: cell-based
Protocol: as §3, §1, §4

[3] = pH 7.2
Protocol: Plasma was obtained by centrifugation of blood samples (obtained from mice) containing 0.25% heparin. 0.8 ml of plasma was mixed with 0.2 ml of phosphate buffer (pH 7.2). Incubations were performed at 37° C.+/−0.5° C. using shaking water bath. The reaction was initiated by adding 25 μl of stock solution of mutual prodrugs (1 mg/ml) to preheated plasma and aliquots were taken at different time interval and extracted using solid phase extraction with C18 Bond Elut columns. HPLC analysis of the extracted samples were performed using a multi-linear gradient solvent system, (i) 20 mM aq. CH3COONH4 buffer/CH3OH(50:50), (100% to 0%) and (ii) CH3OH(100%), (0% to 100%) at a flow rate of 0.8 ml/min.
Plasma was obtained by centrifugation of blood samples containing 0.25% heparin. 0.8 ml of plasma was mixed with 0.2 ml of phosphate buffer (pH 7.2). Incubations were performed at 37° C.±0.5° C. using shaking water bath. […]
HPLC methods were developed to briefly study the cleavage of compounds VNLG/60, VNLG/66, VNLG/114,VNLG/122 and VNLG/124, in fresh mouse plasma. […] Furthermore, the stability of mutual prodrugs was studied in 0.02 M phosphate buffer (pH=7.2) and also in 80% human serum (obtained from Sigma) containing 20% 0.02 M phosphate buffer as previously described.^41 The mutual prodrugs were each incubated at 37° C. for 24 h, extracted and analyzed by HPLC.

LTLC = assay: MTT cell growth inhibition, LTLC cells; type: cell-based
Protocol: as §3
(§5) PC-3 cells were seeded in 24 well plates (Corning Costar) at a density of 2×10^4 cells per well per 1 mL of medium. Cells were allowed to adhere to the plate for 24 hours and then treated with different concentrations of ATRA, HDIs or mutual prodrugs dissolved in 10% DMSO, 90% ethanol. Cells were treated for five days with renewal of prodrug and media on day 3. […] The absorbance at 560 nm was measured by spectrophotometry (Victor 1420 multilabel counted, Wallac). […] GI50 values were calculated by nonlinear regression analysis using GraphPad Prism software. […]

LTLT-Ca = assay: MTT cell growth inhibition, LTLT-Ca cells; type: cell-based
Protocol: as §3, §5

[4] = Homo sapiens, PC-3, dose-response curves, at least three independent experiments, SEM < 10%, read-out: GI50 Values, PC-3 prostate cancer cells
[5] = Homo sapiens, MDA-MB-231, dose-response curves, at least three independent experiments, SEM < 10%, read-out: GI50 Values, MDA-MB-231 breast cancer cells
[6] = Homo sapiens, MDA-MB-231, read-out: GI50, MDA-MB-231 cells
[7] = PC-3, dose-response curves, at least three independent experiments, SEM < 10%, read-out: GI50 Values, PC-3 prostate cancer cells
[8] = MDA-MB-231, dose-response curves, at least three independent experiments, SEM < 10%, read-out: GI50 Values, MDA-MB-231 breast cancer cells
[9] = MDA-MB-231, read-out: GI50, MDA-MB-231 cells

Compound: CC1=C(/C=C/C(C)=C/C=C/C(C)=C/C(=O)O)C(C)(C)CCC1 [ATRA, all-trans retinoic acid, reference compound]
- GI50 [1, 4]: 7600 nM
- GI50 [2, 5]: 10.8 µM

Compound: CC(=O)Nc1ccc(C(=O)Nc2ccccc2N)cc1 [CI-994, N-(2′-aminophenyl)-4-acetylaminobenzamide, reference compound]
- GI50 [1, 4]: 290 nM
- GI50 [2, 5]: 0.17 µM

Compound: Nc1ccccc1NC(=O)c1ccc(CNC(=O)OCc2cccnc2)cc1 [MS-275, N-(2-aminophenyl)4-[N-(pyridine-3-yl-methoxy-carbonyl)aminomethyl]benzamide, reference compound]
- GI50 ([1]; Homo sapiens, PC-3, read-out: GI50, PC-3 cells): 190 nM
- GI50 [1, 4]: 190 nM
- GI50 [2, 5]: 0.009 µM

Compound: CCCC(=O)[O-].[Na+] [Sodium butyrate (BA), Sodium butyrate, reference compound]
- GI50 ([1]; Homo sapiens, PC-3, read-out: GI50 Values, PC-3 prostate cancer cells): 72400 nM
- GI50 [2, 5]: > 1000 µM

Compound: CC(=O)Nc1ccc(C(=O)Nc2ccccc2NC(=O)CNC(=O)OCOC(=O)/C=C(C)/C=C/C=C(C)/C=C/C2=C(C)CCCC2(C)C)cc1 [VNLG/60, (N-{[N-(2-{[4-(Acetylamino)phenyl]carbonylamino}phenyl)carbamoyl]methyl}carbamoyloxy)methyl(2E,4E,6E,8E)-3,7-dimethyl-9-(2,6,6-trimethylcyclohex-1-enyl)nona-2,4,6,8-tetraenoate]
- GI50 (MCF-7HOX-B7): 1200 nM
- GI50 (MCF-7TAMR): 170 nM
- GI50 (MCF-7; Homo sapiens, MCF7): 250 nM
- GI50 [1, 4]: 4270 nM
- GI50 [2, 6]: 0.63 µM
- GI50 ([2]; Homo sapiens, MDA-MB-231, MTT assay, FIG. 1C, read-out: GI50, MDA-MB-231 (FIG. 1C)): 4.3 µM
- GI50 [2, 5]: 0.63 µM
- growth inhibitory effect versus parent drugs alone or in combination ([2]; MDA-MB-231): synergistic growth inhibitory effect

Compound: CC1=C(/C=C/C(C)=C/C=C/C(C)=C/C(=O)Oc2ccc(COC(=O)Nc3ccccc3NC(=O)c3ccc(NCC(=O)OCc4cccnc4)cc3)cc2)C(C)(C)CCC1 [VNLG/114, 4-{[N-(2-{[4-({[(3-Pyridylmethyl)oxycarbonyl]methyl}amino)phenyl]carbonylamino}phenyl)carbamoyloxy]methyl}phenyl(2E,4E,6E,8E)-3,7-dimethyl-9-(2,6,6-trimethylcyclohex-1-enyl)nona-2,4,6,8-tetraenoate]
- GI50 (MCF-7HOX-B7): 720 nM
- melting point: 128 to 130 °C
- GI50 (MCF-7TAMR): 210 nM
- GI50 (MCF-7; Homo sapiens, MCF7): 60 nM
- GI50 [1, 4]: 180 nM
- GI50 [2, 5]: 0.17 µM
- growth inhibitory effect versus parent drugs alone or in combination ([2]; MDA-MB-231): synergistic growth inhibitory effect; also recorded: significant increase

Compound: CC(=O)Nc1ccc(C(=O)Nc2ccccc2NC(=O)OCc2ccc(OC(=O)/C=C(C)/C=C/C=C(C)/C=C/C3=C(C)CCCC3(C)C)cc2)cc1 [VNLG/122, 4-{[N-2-{[4-(Acetylamino)phenyl]carbonylamino}phenyl0carbamoyloxy]methyl}phenyl(2E,4E,6E,8E) -3,7-dimethyl-9-(2,6,6-trimethylcyclohex-1-enyl)nona-2,4,6,8-tetraenoate]
- GI50 (MCF-7HOX-B7; MCF-7HOX-B7): 8130 nM
- GI50 (MCF-7TAMR; MCF-7TAMR): 80 nM
- GI50 (MCF-7; MCF-7): 520 nM
- GI50 [1, 7]: 870 nM
- GI50 fold difference to VNLG/60 ([2]; MDA-MB-231): 31.5 fold
- GI50 fold lower than ATRA ([2]; MDA-MB-231): 543 fold
- GI50 fold lower than CI-994 ([2]; MDA-MB-231): 8.5 fold
- GI50 [2, 8]: 0.02 µM
- GI50 [2, 9]: 0.02 µM

Compound: CCCC(=O)OCc1ccc(OC(=O)/C=C(C)/C=C/C=C(C)/C=C/C2=C(C)CCCC2(C)C)cc1 [VNLG/124, 4-(Butanoyloxymethyl)phenyl(2E,4E,6E,8E)-3,7-dimethyl-9-(2,6,6-trimethylcyclohex-1-enyl)nona-2,4,6,8-tetraenoate]
- inhibition at 20 µM ([1]; Homo sapiens, PC-3, 20 μM, FIG. 8): ~80%
- GI50 ([1]; Homo sapiens, PC-3, FIG. 9, combination = increasing ATRA with BA 10.0 μM, read-out: GI50, PC-3 dose-response curves (FIG. 9)): 1700 nM
- GI50 [1, 4]: 1020 nM
- growth inhibitory effect versus parent drugs alone or in combination ([1]; PC3): significant increase
- GI50 fold lower than the combination of ATRA and BA ([1]; PC-3, FIG. 9): 15 fold
- GI50 [2, 6]: 0.01 µM
- GI50 ([2]; Homo sapiens, MDA-MB-231, head-to-head with 3, FIG. 7, read-out: GI50 for inhibition of growth of MDA-MB-231 cells, head-to-head (FIG. 7)): 0.048 µM
- GI50 [2, 5]: 0.01 µM
- GI50 fold lower than ATRA ([2]; MDA-MB-231): 1085 fold
- GI50 fold lower than BA ([2]; MDA-MB-231): over 100,000 fold
- growth inhibitory effect versus parent drugs alone or in combination ([2]; MDA-MB-231): significant increase
- GI50 fold lower than that of 3 ([2]; MDA-MB-231, FIG. 7): 25 fold

Compound: CCCC(=O)OCOC(=O)C=C(C)C=CC=C(C)C=CC1=C(C)CCCC1(C)C [compound 3, retinoyloxymethyl butyrate, reference compound]
- GI50 ([2]; MDA-MB-231, head-to-head with VNLG/124, FIG. 7, read-out: GI50 for inhibition of growth of MDA-MB-231 cells, head-to-head (FIG. 7)): 1.18 µM

Compound: CC1=C(/C=C/C(C)=C/C=C/C(C)=C/C(=O)Oc2ccc(CO)cc2)C(C)(C)CCC1 [compound 16, 4-(Hydroxymethyl)phenyl(2E,4E,6E,8E)-3,7-dimethyl-9-(2,6,6-trimethylcyclohex-1-enyl)nona-2,4,6,8-tetraenoate]
- GI50 [1, 4]: 1020 nM
- GI50 fold lower than that of butyric acid (BA) ([1]; PC-3): 74 fold

Compound: {N-[N-{2-[4-{[3-Pyridylmethoxy)carbonyamino]methyl}phenyl)carbonylamino]phenyl}carbamoyl carbamoyloxy}methyl(2E,4E,6E,8E)-3,7-dimethyl-9-(2,6,6-trimethylcyclohex-1-enyl)nona-2,4,6,8-tetraenoate [VNLG/66]
- GI50 (MCF-7HOX-B7; MCF-7HOX-B7): 6 nM
- GI50 (MCF-7TAMR; MCF-7TAMR): 20 nM
- GI50 (MCF-7; MCF-7): 150 nM
- GI50 fold lower than 2 (MS-275) ([1]; PC-3): 4.75 fold
- GI50 [1, 7]: 40 nM
- GI50 ([1]; PC-3, read-out: GI50, PC-3 cells): 40 nM
- GI50 [2, 8]: 0.94 µM
- GI50 [2, 9]: 0.94 µM
- hydrolysis of mutual prodrug in plasma [3]: no mutual Prodrug after one hour
- GI50 (LTLC): 20 nM
- GI50 (LTLT-Ca): 650 nM
